Format in all cases: in vivo
The test system of one assay is Plutella xylostella. In words: Test for confirming effect on Plutella xylostella (cabbage leaf immersion, insecticidal rate). As to conditions: single chemical. As for the experimental part:
Test for Confirming Effect on Plutella xylostella
A flowable agent containing the compound A was diluted with water containing RABIDEN® 3S diluted 5000 times to prepare chemical solutions A containing the compound A at twice concentrations described in Table 3.
A preparation containing the compound B or a flowable agent containing the compound B was diluted with water containing RABIDEN 3S diluted 5000 times to prepare chemical solutions B containing the compound B at twice concentrations described in Table 3, respectively.
Cabbage leaves were immersed in a mixed solution obtained by mixing the chemical solution A and the chemical solution B in an equivalent amount for 30 seconds, and these cabbage leaves were placed in a petri dish, and five second-instar Plutella xylostella larvae were released (AB mixture application plot).
(§1) The chemical solution A and the chemical solution B were twice diluted with the water containing RABIDEN 3S diluted 5000 times to obtain a chemical solution A′ and a chemical solution B′.
Cabbage leaves were immersed in the chemical solution A′ for 30 seconds, and these cabbage leaves were placed in another petri dish, and five second-instar Plutella xylostella larvae were released (A single application plot). Cabbage leaves were immersed in the chemical solution B′ for 30 seconds, and these cabbage leaves were placed in another petri dish, and five second-instar Plutella xylostella larvae were released (B single application plot).
Then, these petri dishes were placed in a thermostatic chamber at a temperature of 25° C. and a humidity of 60%. Three days after the larva release, viability determination was performed, and the insecticidal rate was calculated by the following equation. The test was repeated twice.
(§2) Insecticidal rate (%)=(the number of dead insects/the number of tested insects)×100
(§3) To show the degree of a synergistic effect, the “effectiveness expectation” was calculated based on the Colby method. When the effectiveness is higher than the “effectiveness expectation”, it is determined that there is a synergistic effect.
(§4) Expectation of insecticidal rate (%) (E)=X+Y−XY/100
(§5) X: measurement of insecticidal rate in B single application plot (%)
(§6) Y: measurement of insecticidal rate in A single application plot (%)

Another assay relates to Aphis gossypii. In words: Test for confirming effect on Aphis gossypii (cucumber sprinkling, insecticidal rate). As for the experimental part: Test for confirming effect on Aphis gossypii A flowable agent containing the compound A was diluted with water containing RABIDEN 3S diluted 5000 times to prepare chemical solutions A containing the compound A at twice concentrations described in Table 4.
A preparation containing the compound B or a flowable agent containing the compound B was diluted with water containing RABIDEN 3S diluted 5000 times to prepare chemical solutions B containing the compound B at twice concentrations described in Table 4.
First, 9-cm pots were sown with cucumbers. Aphis gossypii female imagoes were released on the cucumbers 10 days after the sprouting. The borne first-instar larvae were left, and the female imagoes were removed on the next day. A mixed solution obtained by mixing the chemical solution A and the chemical solution B in an equivalent amount was sprinkled on the cucumbers (AB mixture application plot).
as §1
The chemical solution A′ was sprinkled on the cucumbers sown with the first-instar larvae by the same method as in the AB mixture application plot (A single application plot). The chemical solution B′ was sprinkled on the cucumbers sown with the first-instar larvae by the same method as in the AB mixture application plot (B single application plot).
Then, the cucumbers sprinkled with the chemical solutions were placed in a thermostatic chamber at a temperature of 25° C. and a humidity of 60%, the viability of the Aphis gossypii was inspected after 6 days, and the insecticidal rate was calculated by the following equation. The test was repeated twice.
as §2, §3, §4, §5, §6

A further assay concerns Phyllotreta striolata. In words: Test for confirming effect on Phyllotreta striolata (bok choy seedling sprinkling, insecticidal rate). As for the experimental part: Test for Confirming Effect on Phyllotreta striolata
A flowable agent containing the compound A was diluted with water containing RABIDEN 3S diluted 5000 times to prepare chemical solutions A containing the compound A at twice concentrations described in Table 5.
A preparation containing the compound B or a flowable agent containing the compound B was diluted with water containing RABIDEN 3S diluted 5000 times to prepare chemical solutions B containing the compound B at twice concentrations described in Table 5.
A mixed solution obtained by mixing the chemical solution A and the chemical solution B in an equivalent amount was sprinkled on bok choy seedlings (at the seventh true leaf stage) planted in 9-cm pots. After air dry, these bok choy seedlings were placed in plastic cups, and ten Phyllotreta striolata imagoes were released (AB mixture application plot).
as §1
The chemical solution A′ was sprinkled on bok choy seedlings (at the seventh true leaf stage) planted in 9-cm pots. After air dry, these bok choy seedlings were placed in plastic cups, and ten Phyllotreta striolata imagoes were released (A single application plot). The chemical solution B′ was sprinkled on bok choy seedlings (at the seventh true leaf stage) planted in 9-cm pots. After air dry, these bok choy seedlings were placed in plastic cups, and ten Phyllotreta striolata imagoes were released (B single application plot).
Then, the bok choy seedlings sprinkled with the chemical solutions were placed in a thermostatic chamber at a temperature of 25° C. and a humidity of 60%, viability determination was performed 6 days after the insect release, and the insecticidal rate was calculated by the following equation. The test was repeated twice.
Insecticidal rate (%)=(the number of the dead insects/the number of tested insects)×100
as §3, §4, §5, §6

Where [1] appears, read: Plutella xylostella, read-out: Effectiveness Measurement (insecticidal rate).
Where [2] appears, read: Aphis gossypii, 144 h, single chemical, 0.12 ppm, after 6 days, read-out: Effectiveness Measurement (insecticidal rate).
Setting [3] is: Plutella xylostella, 0.5 ppm, read-out: Effectiveness Measurement (insecticidal rate).
Setting [4] is: Aphis gossypii, 144 h, single chemical, after 6 days, read-out: Effectiveness Measurement (insecticidal rate).
Where [5] appears, read: Phyllotreta striolata, 144 h, single application, 31 ppm, Phyllotreta striolata imagoes, 6 days after release, read-out: Effectiveness Measurement (insecticidal rate).
The mark [6] stands for this setting: Aphis gossypii, 144 h, single chemical, 2 ppm, after 6 days, read-out: Effectiveness Measurement (insecticidal rate).
The mark [7] stands for this setting: Phyllotreta striolata, 144 h, single application, Phyllotreta striolata imagoes, 6 days after release, read-out: Effectiveness Measurement (insecticidal rate).
The mark [8] stands for this setting: single chemical, 0.12 ppm, after 6 days.

Structures can show the parent of a compound that is named as a salt. Where two headings read alike, the source gives them in different places.

With `CCc1nn(C)c(C(=O)NCc2ccc(Oc3ccc(C)cc3)cc2)c1Cl` [Tolfenpyrad], the pest or weed control at 8 ppm in the assay with Plutella xylostella (setting [1]) was determined as 20%. The pest or weed control at 0.12 ppm in the assay with Aphis gossypii (setting [2]) came out at 18%.

As to Abamectin, the “Effectiveness Measurement (insecticidal rate)” value (“Effectiveness Measurement” for short) with Plutella xylostella (0.5 ppm) is 40%.

As for `N#Cc1nn(-c2c(Cl)cc(C(F)(F)F)cc2Cl)c(N)c1[S+]([O-])C(F)(F)F` (stereo not shown) [Fipronil, fipronil], the results for the pest or weed control at 0.5 ppm with Plutella xylostella (setting [3]) and in the assay on Aphis gossypii (setting [4]) were 40% and 29%, respectively. For the same molecule, the pest or weed control at 0.12 ppm in the assay on Phyllotreta striolata (Phyllotreta striolata, 144 h, single application, 0.12 ppm, Phyllotreta striolata imagoes, 6 days after release, read-out: Effectiveness Measurement (insecticidal rate)) turned out to be 20%.

Regarding `CN(C)C(CSC(N)=O)CSC(N)=O` [Cartap hydrochloride, cartap hydrochloride], the pest or weed control at 2 ppm in the assay with Plutella xylostella (setting [1]) came out at 40%. For the same molecule, the pest or weed control at 31 ppm in the assay on Phyllotreta striolata (setting [5]) was determined as 60%.

On to `CNC(=O)Oc1cccc2c1OC(C)(C)C2` [Carbofuran, carbofuran], for which the pest or weed control at 2 ppm in the assay on Plutella xylostella (setting [1]) was 10%; in the assay with Aphis gossypii (setting [6]), 14%. Also, in the assay with Phyllotreta striolata (setting [5]), the pest or weed control at 31 ppm was 20%.

Take `N#Cc1ccc(CC(=NNC(=O)Nc2ccc(OC(F)(F)F)cc2)c2cccc(C(F)(F)F)c2)cc1` (mixture of isomers) [Metaflumizone, metaflumizone]: the “Effectiveness Measurement” value with Plutella xylostella (0.5 ppm) worked out at 20%; with Phyllotreta striolata (single application, 31 ppm, Phyllotreta striolata imagoes, 6 days after release) it was 40%.

Regarding `C/C(=N\C#N)N(C)Cc1ccc(Cl)nc1` [Acetamiprid, acetamiprid], the pest or weed control at 8 ppm in the assay on Plutella xylostella (setting [1]) amounted to 10%; in the assay with Phyllotreta striolata (Phyllotreta striolata, 144 h, single application, 8 ppm, Phyllotreta striolata imagoes, 6 days after release, read-out: Effectiveness Measurement (insecticidal rate)), 20%. Further, the pest or weed control at 0.12 ppm in the assay with Aphis gossypii (setting [2]) was found to be 40%.

Regarding Spinetoram, in the assay on Plutella xylostella (0.0076 ppm), the “Effectiveness Measurement” value is on record as 40%.

For the molecule `O=C(NC(=O)c1c(F)cccc1F)Nc1cc(Cl)c(F)c(Cl)c1F` [Teflubenzuron], the pest or weed control at 0.5 ppm with Plutella xylostella (setting [3]) is 40%.

Regarding `CCS(=O)(=O)c1cc(C2CC2)cnc1-c1ncc(C(F)C(F)(C(F)(F)F)C(F)(F)F)n1C` (stereo not shown) [Compound (III)], the results for the pest or weed control at 0.5 ppm with Plutella xylostella (setting [3]), in the assay on Aphis gossypii (setting [4]) and in the assay with Phyllotreta striolata (setting [7]) were 40%, 31% and 20%, respectively.

For the molecule `CON=CNC(=O)c1ccc(C2=NOC(c3cc(Cl)cc(Cl)c3)(C(F)(F)F)C2)cc1C` (stereo not shown) [Fluxametamide, fluxametamide], the “Effectiveness Measurement” value with Plutella xylostella (0.12 ppm) worked out at 40%; in the assay on Aphis gossypii (single chemical, 2 ppm, after 6 days), 60%; with Phyllotreta striolata (single application, 2 ppm, Phyllotreta striolata imagoes, 6 days after release), 20%.

For the molecule `CCc1ccc(C(=O)NN(C(=O)c2cc(C)cc(C)c2)C(C)(C)C)cc1` [Tebufenozide], the pest or weed control at 31 ppm in the assay with Plutella xylostella (Plutella xylostella, 31 ppm, read-out: Effectiveness Measurement (insecticidal rate)) was 40%.

On to `CCS(=O)(=O)c1cc(C(F)(F)F)cnc1-c1ncc(/C=C(\Cl)C(F)(F)C(F)(F)F)n1C` [Compound (IV)], for which the pest or weed control at 0.03 ppm in the assay with Plutella xylostella (Plutella xylostella, 0.03 ppm, read-out: Effectiveness Measurement (insecticidal rate)) is 20%. The values for the pest or weed control at 0.5 ppm in the assay with Aphis gossypii (setting [4]) and in the assay on Phyllotreta striolata (setting [7]) were 64% and 10%, respectively.

In the case of `CCS(=O)(=O)c1cc(C2CC2)cnc1-c1ncc(C=C(Cl)C(F)(F)F)n1C` [Compound (II)], the pest or weed control at 0.12 ppm with Plutella xylostella (Plutella xylostella, 0.12 ppm, read-out: Effectiveness Measurement (insecticidal rate)) amounted to 10%; with Aphis gossypii (setting [2]), 18%. The “Effectiveness Measurement” value with Plutella xylostella (0.12 ppm) is 10%; in the assay with Aphis gossypii (setting [8]), 18%. The pest or weed control at 0.5 ppm with Phyllotreta striolata (setting [7]) turned out to be 20%.

`CNC(=O)c1cc(C#N)cc(C)c1NC(=O)c1cc(Br)nn1-c1ncccc1Cl` [Cyantraniliprole, cyantraniliprole]: in the assay on Plutella xylostella (setting [1]), the pest or weed control at 8 ppm came to 10%. Also, in the assay with Aphis gossypii (setting [2]), the pest or weed control at 0.12 ppm worked out at 50%. Besides, the pest or weed control at 0.5 ppm in the assay with Phyllotreta striolata (setting [7]) was determined as 20%.

For the molecule `N#CCNC(=O)c1cnccc1C(F)(F)F` [Flonicamid], the “Effectiveness Measurement” value in the assay with Aphis gossypii (setting [8]) worked out at 21%.

`CCOCn1c(-c2ccc(Cl)cc2)c(C#N)c(Br)c1C(F)(F)F` [Chlorfenapyr, chlorfenapyr]: the pest or weed control at 2 ppm in the assay with Plutella xylostella (setting [1]) was determined as 20%; in the assay with Aphis gossypii (setting [6]) it was 6%; in the assay on Phyllotreta striolata (Phyllotreta striolata, 144 h, single application, 2 ppm, Phyllotreta striolata imagoes, 6 days after release, read-out: Effectiveness Measurement (insecticidal rate)), 40%.

Turning to `COP(=O)(NC(C)=O)SC` (stereo not shown) [Acephate, acephate], the pest or weed control at 31 ppm in the assay with Aphis gossypii (Aphis gossypii, 144 h, read-out: Effectiveness Measurement (insecticidal rate)) was 50%. Also, the pest or weed control at 8 ppm in the assay with Phyllotreta striolata (Phyllotreta striolata, 144 h, read-out: Effectiveness Measurement (insecticidal rate)) was found to be 40%.

`CC1=NNC(=O)N(/N=C/c2cccnc2)C1` [Pymetrozine]: the pest or weed control at 0.12 ppm with Aphis gossypii (setting [2]) worked out at 68%.

As to `CC(C)N1C(=O)N(c2ccccc2)CS/C1=N\C(C)(C)C` [Buprofezin], the pest or weed control at 31 ppm in the assay on Aphis gossypii (Aphis gossypii, 144 h, single chemical, 31 ppm, after 6 days, read-out: Effectiveness Measurement (insecticidal rate)) is 33%.

For the molecule `Cc1c(COC(=O)[C@@H]2[C@H](/C=C(\Cl)C(F)(F)F)C2(C)C)cccc1-c1ccccc1` (racemic) [Bifenthrin], the pest or weed control at 125 ppm in the assay on Plutella xylostella (Plutella xylostella, 125 ppm, read-out: Effectiveness Measurement (insecticidal rate)) came out at 40%. Also, in the assay on Aphis gossypii (Aphis gossypii, 144 h, single chemical, 0.03 ppm, after 6 days, read-out: Effectiveness Measurement (insecticidal rate)), the pest or weed control at 0.03 ppm was 42%.

These data come from US20230157288A1, “PEST CONTROL METHOD, PEST CONTROL AGENT COMPOSITION, AND PEST CONTROL AGENT SET” (priority 2020, published 2023).
